Results on six molecules are retold here after patent publication US20250145665A1, “MACROCYCLIC PEPTIDES USEFUL AS MODULATORS OF TNF ALPHA” (Bristol-Myers Squibb Company, priority 2023, published 2025).

Starred links: 1 amine or outer side, 2 acyl side, 3 side chain; linkers in the order of their positions; H or OH if unused. Positions of bridges follow the written chain, without caps; N, C: chain ends. Non-standard residues stand in square brackets, D forms with d. Residues, ends and D or L forms follow the SMILES beside them. *: point of attachment. Bip(4'-NH) = O=C([C@H](Cc1ccc(-c2ccc(N[*:3])cc2)cc1)N[*:1])[*:2]; Indazole3carbonyl(1-CH2COOH) = O=C(O)Cn1nc(C(=O)*)c2ccccc21; Bip(4'-COOH) = N[C@@H](Cc1ccc(-c2ccc(C(=O)O)cc2)cc1)C(=O)O; Bip(4'-NHAc) = CC(=O)Nc1ccc(-c2ccc(C[C@H](N)C(=O)O)cc2)cc1; Benzoyl(3-OCH2COOH) = O=C(O)COc1cccc(C(=O)*)c1; Bip = N[C@@H](Cc1ccc(-c2ccccc2)cc1)C(=O)O; Phe(4-F) = N[C@@H](Cc1ccc(F)cc1)C(=O)O; Val(3-OH) = CC(C)(O)[C@H](N)C(=O)O; 2Pal = N[C@@H](Cc1ccccn1)C(=O)O; Tic = O=C(O)[C@@H]1Cc2ccccc2CN1; Cha = N[C@@H](CC1CCCCC1)C(=O)O; Aze = O=C(O)[C@@H]1CCN1; Sar = CNCC(=O)O

Sequence of TNFα (P01375 77-233 limits assumed): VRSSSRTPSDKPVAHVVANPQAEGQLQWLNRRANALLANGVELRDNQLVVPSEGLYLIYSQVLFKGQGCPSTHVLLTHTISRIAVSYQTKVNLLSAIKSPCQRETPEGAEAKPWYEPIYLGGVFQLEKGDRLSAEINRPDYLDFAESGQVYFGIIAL

One experiment addresses TNFα (Homo sapiens, UniProt P01375). The experiment is described as follows: TNF-Induced HEK-Blue Assay. Type of experiment: cell-based.
Settings: not given
The term IC50 denotes the concentration needed to halve the response being measured. `CC[C@H](C)[C@@H]1NC(=O)[C@@H](CCCNC(=N)N)NC(=O)[C@H](CC(=O)O)NC(=O)[C@H](Cc2cnc[nH]2)NC(=O)CN(C)C(=O)[C@H](Cc2ccc(-c3ccc(NC(=O)c4nn(CC(=O)O)c5ccccc45)cc3)cc2)NC(=O)[C@H](Cc2ccc(-c3ccc(C(=O)O)cc3)cc2)NC(=O)[C@H](CC2CCCCC2)NC(=O)CSC[C@@H](C(=O)NCC(N)=O)NC(=O)[C@H](CC(C)C)NC(=O)[C@H](Cc2cnc[nH]2)NC(=O)[C@H](C(C)C)NC(=O)[C@@H]2Cc3ccccc3CN2C1=O` [Example 361] ({CH2CO}-[Cha][Bip(4'-COOH)][Bip(4'-NH)](Indazole3carbonyl(1-CH2COOH))[Sar]HD[dR]I[Tic]VHLCG-NH2; thioether N-13) yielded a concentration for half-maximal inhibition (IC50) below 50 nM.

The experiment is the same for the next values; noted with them: HEK-Blue-CD40L cells, NF-kB-driven secreted alkaline phosphatase reporter; TNFα 0.5 ng/ml; 18 h; read-out: TNF induced HEK-Blue assay IC50 value.
As for `CC(C)C[C@@H]1NC(=O)[C@H](CCCNC(=N)N)NC(=O)[C@H](C(C)C)NC(=O)[C@@H]2CCCN2C(=O)[C@H](Cc2ccc(F)cc2)NC(=O)[C@H](CCCNC(=N)N)NC(=O)[C@H](CC(=O)O)NC(=O)[C@@H]2CCCN2C(=O)CN(C)C(=O)[C@H](Cc2ccc(-c3ccccc3)cc2)NC(=O)[C@H](Cc2ccc(-c3ccccc3)cc2)NC(=O)[C@H](C(C)(C)O)NC(=O)CSC[C@@H](C(=O)NCC(N)=O)NC1=O` [Example 58] ({CH2CO}-[Val(3-OH)][Bip][Bip][Sar]PDR[Phe(4-F)]PVRLCG-NH2; thioether N-13), the IC50 is 50 to 200 nM.
Still for that read-out and setting: the result for `CC(C)C[C@@H]1NC(=O)[C@H](CCCNC(=N)N)NC(=O)[C@H](C(C)C)NC(=O)[C@@H]2CCCN2C(=O)[C@H](C(C)C)NC(=O)[C@H](CCCNC(=N)N)NC(=O)[C@H](CC(=O)O)NC(=O)[C@@H]2CCCN2C(=O)CN(C)C(=O)[C@H](Cc2ccc(-c3ccccc3)cc2)NC(=O)[C@H](Cc2ccc(-c3ccccc3)cc2)NC(=O)[C@H](C(C)(C)O)NC(=O)CSC[C@@H](C(=O)NCC(N)=O)NC1=O` [Example 27] ({CH2CO}-[Val(3-OH)][Bip][Bip][Sar]PDRVPVRLCG-NH2; thioether N-13) reads 50 to 200 nM; that for `CC(=O)Nc1ccc(-c2ccc(C[C@@H]3NC(=O)[C@H](Cc4ccc(-c5ccccc5)cc4)NC(=O)[C@H](C(C)(C)O)NC(=O)CSC[C@@H](C(=O)NCC(N)=O)NC(=O)[C@H](CC(C)C)NC(=O)[C@H](Cc4ccc(O)cc4)NC(=O)[C@H](C(C)C)NC(=O)[C@@H]4CCCN4C(=O)[C@H](C(C)C)NC(=O)[C@@H](CCCNC(=N)N)NC(=O)[C@H](CC(=O)O)NC(=O)[C@H](Cc4ccccn4)NC(=O)CN(C)C3=O)cc2)cc1` [Example 175] ({CH2CO}-[Val(3-OH)][Bip][Bip(4'-NHAc)][Sar][2Pal]D[dR]VPVYLCG-NH2; thioether N-13), below 50 nM; that for `CC[C@H](C)[C@@H]1NC(=O)[C@@H](CCCNC(=N)N)NC(=O)[C@H](CC(=O)O)NC(=O)[C@H](Cc2cnc[nH]2)NC(=O)CN(C)C(=O)[C@H](Cc2ccc(-c3ccc(NC(=O)c4cccc(OCC(=O)O)c4)cc3)cc2)NC(=O)[C@H](Cc2ccc(-c3ccccc3)cc2)NC(=O)[C@H](CC2CCCCC2)NC(=O)CSC[C@@H](C(=O)NCC(N)=O)NC(=O)[C@H](CC(C)C)NC(=O)[C@H](Cc2c[nH]cn2)NC(=O)[C@H](C(C)C)NC(=O)[C@@H]2Cc3ccccc3CN2C1=O` [Example 515] ({CH2CO}-[Cha][Bip][Bip(4'-NH)](Benzoyl(3-OCH2COOH))[Sar]HD[dR]I[Tic]VHLCG-NH2; thioether N-13), below 50 nM.
`CC(C)C[C@@H]1NC(=O)[C@H](CCCNC(=N)N)NC(=O)[C@H](C(C)C)NC(=O)[C@@H]2CCCN2C(=O)[C@H](C(C)C)NC(=O)[C@H](CCCNC(=N)N)NC(=O)[C@H](CC(=O)O)NC(=O)[C@@H]2CCN2C(=O)CN(C)C(=O)[C@H](Cc2ccc(-c3ccccc3)cc2)NC(=O)[C@H](Cc2ccc(-c3ccccc3)cc2)NC(=O)[C@H](Cc2ccccc2)NC(=O)CSC[C@@H](C(=O)NCC(N)=O)NC1=O` [Example 46] ({CH2CO}-F[Bip][Bip][Sar][Aze]DRVPVRLCG-NH2; thioether N-13): the IC50 lay within 200 to 2000 nM.
